Bridge positions count the residues as written; N and C are the ends. Square brackets hold non-standard residues; d marks the D form. Peptide text beside a SMILES is read from it. * marks the point of attachment. ξ: configuration not given here. Bip = N[C@@H](Cc1ccc(-c2ccccc2)cc1)C(=O)O; NH(CH2)14COOH = O=C(O)CCCCCCCCCCCCCCN*; Phe(3-Me) = Cc1cccc(C[C@H](N)C(=O)O)c1; Val(3-OH) = CC(C)(O)[C@H](N)C(=O)O; hArg = N=C(N)NCCCC[C@H](N)C(=O)O; 4Pal = N[C@@H](Cc1ccncc1)C(=O)O; Cha = N[C@@H](CC1CCCCC1)C(=O)O; Cit = NC(=O)NCCC[C@H](N)C(=O)O; Thr(3ξ) = CC(O)[C@H](N)C(=O)O; 12Ado = NCCCCCCCCCCCC(=O)O; Carboxymethyl = O=C(O)C*; Orn = NCCC[C@H](N)C(=O)O; Aun = NCCCCCCCCCCC(=O)O; Dab = NCC[C@H](N)C(=O)O; Nva = CCC[C@H](N)C(=O)O; Dap = NC[C@H](N)C(=O)O; AEEA = NCCOCCOCC(=O)O

The term IC50 denotes the midpoint of a concentration-inhibition curve.

T1 sequence (Q15116 25-288): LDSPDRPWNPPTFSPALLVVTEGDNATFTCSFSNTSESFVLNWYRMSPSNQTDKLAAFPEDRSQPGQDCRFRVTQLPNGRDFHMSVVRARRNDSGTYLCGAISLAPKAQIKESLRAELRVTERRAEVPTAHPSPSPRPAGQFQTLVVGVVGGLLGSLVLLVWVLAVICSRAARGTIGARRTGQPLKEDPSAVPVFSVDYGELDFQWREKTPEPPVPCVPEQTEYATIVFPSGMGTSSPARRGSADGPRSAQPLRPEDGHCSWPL

The test addresses T1, PD-1/PD-L1 interaction (PE-labeled human PD-L1-Ig binding to Jurkat cell line over-expressing human PD-1) (Homo sapiens, UniProt Q15116).
T1 construct: expressed in transfected cells; host or cells: Jurkat
The experiment in a line: Jurkat-PD-1 Cell Binding High-Content Screening Assay (CBA). It is filed as cell-based. The settings on record: Jurkat cell line over-expressing human PD-1; PE-labeled PD-L1-Ig 20 nM final; read-out: Jurkat hPD1-PDL1 IC50. In a few lines: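 Binding of fluorescent PD-L1-Ig (20 nM final) to Jurkat-PD-1 cells was measured by automated imaging after 1 h, following a 2 h compound pre-treatment at 37° C.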
For `Cc1cccc(C[C@@H]2NC(=O)[C@H](CC(=O)O)NC(=O)[C@H](Cc3ccc(OCC(=O)O)cc3)NC(=O)[C@H](CCN)NC(=O)CSC[C@@H](C(=O)N[C@@H](CCN)C(=O)NCCOCCOCC(=O)NCCOCCOCC(=O)NCCCCCCCCCCC(=O)O)NC(=O)[C@H](CCC(=O)O)NC(=O)[C@H](C(C)(C)O)NC(=O)[C@H](CC3CCCCC3)NC(=O)[C@H](CCN)NC(=O)[C@@H](CC(C)C)NC(=O)[C@H](CCCN)NC(=O)[C@H](Cc3ccc(OCC(=O)O)cc3)NC(=O)[C@H](Cc3ccc(-c4ccccc4)cc3)NC(=O)[C@H](Cc3ccc(OCC(=O)O)cc3)NC2=O)c1` [Compound 3753] ({CH2CO}-[Dab]Y(Carboxymethyl)D[Phe(3-Me)]Y(Carboxymethyl)[Bip]Y(Carboxymethyl)[Orn][dL][Dab][Cha][Val(3-OH)]EC[Dab][AEEA][AEEA][Aun]-OH; thioether N-14), the IC50 came out at 6 nM.

On to `CCC[C@@H]1NC(=O)CSC[C@@H](C(=O)N[C@@H](CCN)C(=O)NCCOCCOCC(=O)NCCOCCOCC(=O)NCCCCCCCCCCCCCCC(=O)O)NC(=O)[C@H](CO)NC(=O)[C@H](C(C)(C)O)NC(=O)[C@H](CC2CCCCC2)NC(=O)[C@H](CCN)NC(=O)[C@@H](CC(C)C)NC(=O)[C@H](CCCN)NC(=O)[C@H](Cc2ccc(OCC(=O)O)cc2)NC(=O)[C@H](Cc2ccc(-c3ccccc3)cc2)NC(=O)[C@H](Cc2ccc(OCC(=O)O)cc2)NC(=O)[C@H](Cc2cccc(C)c2)NC(=O)[C@H](CC(=O)O)NC(=O)[C@H](Cc2ccc(OCC(=O)O)cc2)NC1=O` [Compound 2866] ({CH2CO}-[Nva]Y(Carboxymethyl)D[Phe(3-Me)]Y(Carboxymethyl)[Bip]Y(Carboxymethyl)[Orn][dL][Dab][Cha][Val(3-OH)]SC[Dab][AEEA][AEEA]-{NH(CH2)14COOH}; thioether N-14), for which the IC50 worked out at 101 nM.

As to `Cc1cccc(C[C@@H]2NC(=O)[C@H](CC(=O)O)NC(=O)[C@H](Cc3ccc(OCC(=O)O)cc3)NC(=O)[C@H]([C@@H](C)O)NC(=O)CSC[C@@H](C(=O)N[C@@H](CCN)C(=O)NCCCCCCCCCCC(=O)O)NC(=O)[C@H]([C@@H](C)O)NC(=O)[C@H](C(C)C)NC(=O)[C@H](CC3CCCCC3)NC(=O)[C@H](CCN)NC(=O)[C@@H](CC(C)C)NC(=O)[C@H](CCCN)NC(=O)[C@H](Cc3ccc(OCC(=O)O)cc3)NC(=O)[C@H](Cc3ccc(-c4ccccc4)cc3)NC(=O)[C@H](Cc3ccc(OCC(=O)O)cc3)NC2=O)c1` [Compound 2086] ({CH2CO}-TY(Carboxymethyl)D[Phe(3-Me)]Y(Carboxymethyl)[Bip]Y(Carboxymethyl)[Orn][dL][Dab][Cha]VTC[Dab][Aun]-OH; thioether N-14), the IC50 worked out at 10.2 nM.

Take `CC(C)C[C@H]1NC(=O)[C@H](CCCN)NC(=O)[C@H](C(C)C)NC(=O)[C@H](Cc2ccc(-c3ccccc3)cc2)NC(=O)[C@H](C(C)C)NC(=O)[C@H](Cc2c[nH]c3ccccc23)NC(=O)[C@H](CC(=O)O)NC(=O)[C@H](Cc2ccc(OCC(=O)O)cc2)NC(=O)[C@H](Cc2ccncc2)NC(=O)CSC[C@@H](C(=O)N[C@@H](CCN)C(=O)NCCCCCCCCCCC(=O)O)NC(=O)[C@H](CN)NC(=O)[C@H](C(C)C)NC(=O)[C@H](CC2CCCCC2)NC(=O)[C@H](CCN)NC1=O` [Compound 3294] ({CH2CO}-[4Pal]Y(Carboxymethyl)DWV[Bip]V[Orn][dL][Dab][Cha]V[Dap]C[Dab][Aun]-OH; thioether N-14): the IC50 worked out at 15.5 nM.

For the compound `CC(C)C[C@@H]1NC(=O)[C@H](Cc2c[nH]c3ccccc23)NC(=O)[C@H](CC(=O)O)NC(=O)[C@H](Cc2ccc(OCC(=O)O)cc2)NC(=O)[C@H](C(C)O)NC(=O)CSC[C@@H](C(=O)N[C@@H](CCN)C(=O)NCCCCCCCCCCC(=O)O)NC(=O)[C@H](CCCN)NC(=O)[C@H](C(C)O)NC(=O)[C@H](CC2CCCCC2)NC(=O)[C@H](CCN)NC(=O)[C@@H](CC(C)C)NC(=O)[C@H](CCCN)NC(=O)[C@H](Cc2ccc(O)cc2)NC(=O)[C@H](Cc2ccc(-c3ccccc3)cc2)NC1=O` (stereo partly drawn) [Compound 3684] ({CH2CO}-[Thr(3ξ)]Y(Carboxymethyl)DWL[Bip]Y[Orn][dL][Dab][Cha][Thr(3ξ)][Orn]C[Dab][Aun]-OH; thioether N-14), the IC50 was found to be 77.1 nM.

Turning to `Cc1cccc(C[C@@H]2NC(=O)[C@H](CC(=O)O)NC(=O)[C@H](Cc3ccc(OCC(=O)O)cc3)NC(=O)[C@H](CCCCNC(=N)N)NC(=O)CSC[C@@H](C(=O)NCC(=O)N[C@@H](CCC(=O)O)C(=O)NCCCCCCCCCCCC(=O)O)NC(=O)[C@H](CO)NC(=O)[C@H](C(C)C)NC(=O)[C@H](CC3CCCCC3)NC(=O)[C@H](CCN)NC(=O)[C@@H](CC(C)C)NC(=O)[C@H](CCCN)NC(=O)[C@H](CCCNC(N)=O)NC(=O)[C@H](Cc3ccc(-c4ccccc4)cc3)NC(=O)[C@H](C(C)C)NC2=O)c1` [Compound 3183] ({CH2CO}-[hArg]Y(Carboxymethyl)D[Phe(3-Me)]V[Bip][Cit][Orn][dL][Dab][Cha]VSCGE[12Ado]-OH; thioether N-14), the IC50 stood at 821 nM.

On to `Cc1cccc(C[C@@H]2NC(=O)[C@H](CC(=O)O)NC(=O)[C@H](Cc3ccc(OCC(=O)O)cc3)NC(=O)[C@H](CCCNC(=N)N)NC(=O)CSC[C@@H](C(=O)N[C@H](CC(N)=O)C(=O)NCCCCCCCCCCC(=O)O)NC(=O)[C@H](C(C)O)NC(=O)[C@H](C(C)C)NC(=O)[C@H](CC3CCCCC3)NC(=O)[C@H](CCN)NC(=O)[C@@H](CC(C)C)NC(=O)[C@H](CCCN)NC(=O)[C@H](Cc3ccc(O)cc3)NC(=O)[C@H](Cc3ccc(-c4ccccc4)cc3)NC(=O)[C@H](C(C)C)NC2=O)c1` (stereo partly drawn) [Compound 3452] ({CH2CO}-RY(Carboxymethyl)D[Phe(3-Me)]V[Bip]Y[Orn][dL][Dab][Cha]V[Thr(3ξ)]C[dN][Aun]-OH; thioether N-14), for which the IC50 was 25.8 nM.

Consider `Cc1cccc(C[C@@H]2NC(=O)[C@H](CC(=O)O)NC(=O)[C@H](Cc3ccc(OCC(=O)O)cc3)NC(=O)[C@H]([C@@H](C)O)NC(=O)CSC[C@@H](C(=O)N[C@@H](CCN)C(=O)NCCOCCOCC(=O)NCCCCCCCCCCC(=O)O)NC(=O)[C@H](CO)NC(=O)[C@H](C(C)(C)O)NC(=O)[C@H](CC3CCCCC3)NC(=O)[C@H](CCN)NC(=O)[C@@H](CC(C)C)NC(=O)[C@H](CCCN)NC(=O)[C@H](Cc3ccc(OCC(=O)O)cc3)NC(=O)[C@H](Cc3ccc(-c4ccccc4)cc3)NC(=O)[C@H](Cc3ccc(OCC(=O)O)cc3)NC2=O)c1` [Compound 2243] ({CH2CO}-TY(Carboxymethyl)D[Phe(3-Me)]Y(Carboxymethyl)[Bip]Y(Carboxymethyl)[Orn][dL][Dab][Cha][Val(3-OH)]SC[Dab][AEEA][Aun]-OH; thioether N-14), for which the IC50 stood at 1.7 nM.

Take `Cc1cccc(C[C@@H]2NC(=O)[C@H](CC(=O)O)NC(=O)[C@H](Cc3ccc(OCC(=O)O)cc3)NC(=O)[C@H](CCCNC(=N)N)NC(=O)CSC[C@@H](C(=O)N[C@@H](CCN)C(=O)NCCCCCCCCCCC(=O)O)NC(=O)[C@H](CCC(=O)O)NC(=O)[C@H](C(C)(C)O)NC(=O)[C@H](CC3CCCCC3)NC(=O)[C@H](CCN)NC(=O)[C@@H](CC(C)C)NC(=O)[C@H](CCCN)NC(=O)[C@H](Cc3ccc(OCC(=O)O)cc3)NC(=O)[C@H](Cc3ccc(-c4ccccc4)cc3)NC(=O)[C@H](Cc3ccc(OCC(=O)O)cc3)NC2=O)c1` [Compound 2863] ({CH2CO}-RY(Carboxymethyl)D[Phe(3-Me)]Y(Carboxymethyl)[Bip]Y(Carboxymethyl)[Orn][dL][Dab][Cha][Val(3-OH)]EC[Dab][Aun]-OH; thioether N-14): the concentration for half-maximal inhibition (IC50) came to 8.7 nM.

(Values after patent publication US20260022142A1, “MACROCYCLIC IMMUNOMODULATORS” (Bristol-Myers Squibb Company, priority 2022, published 2026).)
